Data published in PubChem BioAssay (NCI).
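Assay format: 96-well plates, 48-hour exposure. GI50 is the concentration that inhibits growth by half. TGI denotes the concentration required for complete inhibition of growth.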

Key:
Experiment in all cases: NCI anticancer screen, dose series, 48 h
OVCAR-4 ovarian = test system: OVCAR-4 ovarian
SN12C renal = test system: SN12C renal
KM12 colon = test system: KM12 colon
SW-620 colon = test system: SW-620 colon
MALME-3M melanoma = test system: MALME-3M melanoma
HCC-2998 colon = test system: HCC-2998 colon
LOX IMVI melanoma = test system: LOX IMVI melanoma
SNB-19 CNS = test system: SNB-19 CNS
RPMI-8226 leukemia = test system: RPMI-8226 leukemia
SF-539 CNS = test system: SF-539 CNS
TK-10 renal = test system: TK-10 renal
CCRF-CEM leukemia = test system: CCRF-CEM leukemia
UACC-62 melanoma = test system: UACC-62 melanoma
T-47D breast = test system: T-47D breast
ACHN renal = test system: ACHN renal
EKVX NSCLC = test system: EKVX NSCLC
BT-549 breast = test system: BT-549 breast
NCI/ADR-RES ovarian = test system: NCI/ADR-RES ovarian
SK-OV-3 ovarian = test system: SK-OV-3 ovarian
OVCAR-3 ovarian = test system: OVCAR-3 ovarian
HOP-62 NSCLC = test system: HOP-62 NSCLC
A549 NSCLC = test system: A549 NSCLC
NCI-H23 lung = test system: NCI-H23 lung
RXF 393 renal = test system: RXF 393 renal
HS 578T breast = test system: HS 578T breast
SK-MEL-5 melanoma = test system: SK-MEL-5 melanoma
MOLT-4 leukemia = test system: MOLT-4 leukemia

## COc1nc2c(cc1S(=O)(=O)c1ccccc1)CCc1c-2cnn1Cc1ccccc1
OVCAR-4 ovarian
  GI50: 5.22 µM
  TGI: > 100 µM
SN12C renal
  GI50: > 100 µM
  TGI: > 100 µM
KM12 colon
  GI50: 3.73 µM
  TGI: > 100 µM
SW-620 colon
  GI50: > 100 µM
  TGI: > 100 µM
MALME-3M melanoma
  GI50: 24.4 µM
  TGI: > 100 µM
HCC-2998 colon
  GI50: 25.3 µM
  TGI: > 100 µM
LOX IMVI melanoma
  GI50: > 100 µM
  TGI: > 100 µM
SNB-19 CNS
  GI50: > 100 µM
  TGI: > 100 µM
RPMI-8226 leukemia
  GI50: 3.49 µM
  TGI: > 100 µM
SF-539 CNS
  GI50: 17 µM
  TGI: > 100 µM
TK-10 renal
  GI50: > 100 µM
  TGI: > 100 µM
CCRF-CEM leukemia
  GI50: 16.8 µM
  TGI: > 100 µM
UACC-62 melanoma
  GI50: 7.52 µM
  TGI: > 100 µM
T-47D breast
  GI50: 3.09 µM
  TGI: 79.5 µM
ACHN renal
  GI50: 42.6 µM
  TGI: > 100 µM
EKVX NSCLC
  GI50: 14 µM
  TGI: > 100 µM
BT-549 breast
  GI50: 8.07 µM
  TGI: > 100 µM
NCI/ADR-RES ovarian
  GI50: 9.84 µM
  TGI: > 100 µM
SK-OV-3 ovarian
  GI50: 9.86 µM
  TGI: > 100 µM
OVCAR-3 ovarian
  GI50: 9.35 µM
  TGI: > 100 µM
HOP-62 NSCLC
  GI50: 17.7 µM
  TGI: > 100 µM
A549 NSCLC
  GI50: > 100 µM
  TGI: > 100 µM
NCI-H23 lung
  GI50: 8.45 µM
  TGI: > 100 µM
RXF 393 renal
  GI50: 6.04 µM
  TGI: > 100 µM
HS 578T breast
  GI50: 13.3 µM
  TGI: > 100 µM
SK-MEL-5 melanoma
  GI50: 2.89 µM
  TGI: > 100 µM
MOLT-4 leukemia
  GI50: 5.48 µM
  TGI: > 100 µM
